As to `O=C(O)C(=O)O.O=C(OCCC1CCCCC1)N1CCc2nc[nH]c2C1` [Example 40, 4,5,6,7-Tetrahydroimidazo[4,5-c]pyridine-5-carboxylic Acid 2-cyclohexylethyl Ester Oxalate], the melting point (in general, the temperature, or range, at which the solid turns liquid) fell in the range of 174 to 176 °C. To `Cc1ccc(COC(=O)N2CCc3[nH]cnc3C2)c(C)c1.O=C(O)C(=O)O` [Example 28, 4,5,6,7-Tetrahydroimidazo[4,5-c]pyridine-5-carboxylic Acid 2,4-dimethylbenzyl Ester Oxalate] belongs 176 to 178 °C; to `CC(C)c1ccc(COC(=O)N2CCc3nc[nH]c3C2)cc1.O=C(O)C(=O)O` [Example 31, 4,5,6,7-Tetrahydroimidazo[4,5-c]pyridine-5-carboxylic Acid 4-isopropylbenzyl Ester Oxalate], 166 to 168 °C; to `Cc1cccc(CCOC(=O)N2CCc3[nH]cnc3C2)c1.O=C(O)C(=O)O` [Example 24, 4,5,6,7-Tetrahydroimidazo[4,5-c]pyridine-5-carboxylic Acid 2-(3-methylphenyl)ethyl Ester Oxalate], 155 to 157 °C. Under `O=C(O)C(=O)O.O=C(OCCc1ccsc1)N1CCc2nc[nH]c2C1` [Example 37, 4,5,6,7-Tetrahydroimidazo[4,5-c]pyridine-5-carboxylic Acid 2-thiophen-3-ylethyl Ester Oxalate] stands 193 to 194 °C; under `O=C(O)C(=O)O.O=C(OCc1ccccc1Cl)N1CCc2nc[nH]c2C1` [Example 42, 4,5,6,7-Tetrahydroimidazo[4,5-c]pyridine-5-carboxylic Acid 2-chlorobenzyl Ester Oxalate], 173 to 175 °C; under `O=C(O)C(=O)O.O=C(OCCc1cccs1)N1CCc2nc[nH]c2C1` [Example 36, 4,5,6,7-Tetrahydroimidazo[4,5-c]pyridine-5-carboxylic Acid 2-thiophen-2-ylethyl Ester Oxalate], 173 to 175 °C. Consider `CCc1ccc(COC(=O)N2CCc3nc[nH]c3C2)cc1.O=C(O)C(=O)O` [Example 34, 4,5,6,7-Tetrahydroimidazo[4,5-c]pyridine-5-carboxylic Acid 4-ethylbenzyl Ester Oxalate], for which the melting point lay in the range of 171 to 173 °C. On to `COc1cccc(COC(=O)N2CCc3[nH]cnc3C2)c1.O=C(O)C(=O)O` [Example 19, 4,5,6,7-Tetrahydroimidazo[4,5-c]pyridine-5-carboxylic Acid 3-methoxybenzyl Ester Oxalate], for which the melting point lay within 163 to 165 °C. Under `O=C(O)C(=O)O.O=C(OCC1CCCCC1)N1CCc2nc[nH]c2C1` [Example 41, 4,5,6,7-Tetrahydroimidazo[4,5-c]pyridine-5-carboxylic Acid Cyclohexylmethyl Ester Oxalate] stands 176 to 178 °C. To `Cc1cccc(COC(=O)N2CCc3[nH]cnc3C2)c1.O=C(O)C(=O)O` [Example 21, 4,5,6,7-Tetrahydroimidazo[4,5-c]pyridine-5-carboxylic Acid 3-methylbenzyl Ester Oxalate] belongs 169 to 171 °C.
